Measured values: ChEMBL document CHEMBL4334552, “Discovery of BMS-986260, a Potent, Selective, and Orally Bioavailable TGFβR1 Inhibitor as an Immuno-oncology Agent” (ACS Med Chem Lett, 2020)
≈ marks a conversion by molar mass, not a printed value.

Experiments:
[1] = Metabolic stability of compound in rat liver microsomes assessed as compound remaining after 10 mins; assay type: ADME, Microsome; conditions: read-out: Stability
[2] = Metabolic stability of compound in human liver microsomes assessed as compound remaining; assay type: ADME, Microsome
[3] = biological target: T1, TGF-beta receptor type-1 (Homo sapiens, UniProt P36897); experiment: Inhibition of TGFBR1 in TGFbeta-stimulated human NHLF cells assessed as reduction in SMAD2 nuclear translocation
T1 sequence (P36897 whole entry): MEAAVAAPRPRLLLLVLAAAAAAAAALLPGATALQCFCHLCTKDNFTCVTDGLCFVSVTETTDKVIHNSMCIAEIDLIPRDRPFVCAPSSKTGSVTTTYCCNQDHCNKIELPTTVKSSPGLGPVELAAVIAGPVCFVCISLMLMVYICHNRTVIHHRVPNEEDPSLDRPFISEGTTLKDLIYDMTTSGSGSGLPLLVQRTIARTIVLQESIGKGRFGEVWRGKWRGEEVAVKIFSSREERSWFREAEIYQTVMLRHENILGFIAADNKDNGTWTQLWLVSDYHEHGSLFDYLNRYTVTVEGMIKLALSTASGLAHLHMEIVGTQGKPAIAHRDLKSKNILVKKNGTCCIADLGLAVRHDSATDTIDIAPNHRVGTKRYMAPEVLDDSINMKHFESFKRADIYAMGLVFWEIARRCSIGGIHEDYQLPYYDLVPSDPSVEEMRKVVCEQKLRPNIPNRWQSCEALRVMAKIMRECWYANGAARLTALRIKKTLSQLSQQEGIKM

[4] = biological target: TGF-beta receptor type-1 (Homo sapiens, UniProt P36897, T204D); experiment: Inhibition of His-tagged TGFBR1 kinase domain T204D mutant (unknown origin) incubated for 1 hr by HTRF analysis
Sequence of TGF-beta receptor type-1 (Homo sapiens, UniProt P36897, T204D) (P36897 34-503 T204D limits assumed): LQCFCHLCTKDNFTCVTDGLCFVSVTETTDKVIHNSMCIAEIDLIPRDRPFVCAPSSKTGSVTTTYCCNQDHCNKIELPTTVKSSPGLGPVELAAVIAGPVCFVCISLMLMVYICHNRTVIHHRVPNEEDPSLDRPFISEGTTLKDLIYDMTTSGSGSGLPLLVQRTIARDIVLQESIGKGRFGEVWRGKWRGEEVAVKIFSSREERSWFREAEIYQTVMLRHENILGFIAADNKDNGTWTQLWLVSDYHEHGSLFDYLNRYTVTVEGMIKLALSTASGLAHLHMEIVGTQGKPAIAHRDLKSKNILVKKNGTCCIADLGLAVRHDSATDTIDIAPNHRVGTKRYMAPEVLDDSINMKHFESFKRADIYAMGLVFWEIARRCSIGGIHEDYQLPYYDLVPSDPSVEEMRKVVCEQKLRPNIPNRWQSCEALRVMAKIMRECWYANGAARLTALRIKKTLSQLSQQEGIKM

[5] = Metabolic stability of compound in mouse liver microsomes assessed as compound remaining; assay type: ADME, Microsome
[6] = AUC (0 to 24 hrs) in mouse at 10 mg/kg, po; assay type: ADME, organism-based; set-up: dose 10 mg/kg, time < 24 hr, route oral; conditions: in vivo
[7] = biological target: TGF-beta receptor type-2 (Homo sapiens, UniProt P37173); experiment: Inhibition of wild type His-tagged TGFBR2 kinase domain (unknown origin) incubated for 1 hr by HTRF analysis
Sequence of TGF-beta receptor type-2 (P37173 whole entry, the tested form may be a part): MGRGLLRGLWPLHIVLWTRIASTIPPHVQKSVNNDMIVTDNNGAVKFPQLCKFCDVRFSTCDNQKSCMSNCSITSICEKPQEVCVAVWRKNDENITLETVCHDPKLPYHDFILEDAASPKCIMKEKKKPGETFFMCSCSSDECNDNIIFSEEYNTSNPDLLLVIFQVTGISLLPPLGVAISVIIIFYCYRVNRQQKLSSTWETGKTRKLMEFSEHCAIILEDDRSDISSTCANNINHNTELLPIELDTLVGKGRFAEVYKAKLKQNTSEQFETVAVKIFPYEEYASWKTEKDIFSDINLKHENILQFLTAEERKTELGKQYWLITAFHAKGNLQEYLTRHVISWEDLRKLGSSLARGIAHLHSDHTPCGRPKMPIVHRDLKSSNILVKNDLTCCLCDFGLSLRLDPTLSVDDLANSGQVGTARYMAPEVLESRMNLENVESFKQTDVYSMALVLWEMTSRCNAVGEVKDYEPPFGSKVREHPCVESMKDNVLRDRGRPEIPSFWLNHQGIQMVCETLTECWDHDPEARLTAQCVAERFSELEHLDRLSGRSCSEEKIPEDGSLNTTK

[8] = Solubility of compound in crystalline form at pH 6.5; assay type: physicochemical
[9] = Aqueous solubility of the compound at pH 6.5; assay type: physicochemical; conditions: buffer

SMILES	remaining at 10 min [1]	Stability [2]	IC50 [3]	IC50 [4]	Stability [5]	AUC(0-t) at 24 h [6]	IC50 [7]	solubility [8]	solubility [9]
Cc1cccc(-c2ncn(CC(F)F)c2-c2ccc3nccn3c2)n1	31%	78%	90 nM	1 to 10 nM	54%	–	–	–	–
NC(=O)c1cnc2ccc(-c3c(-c4ccc(F)cc4)ncn3CC(F)F)nn12	100%	100%	–	–	100%	28 µM·h	–	–	–
Cc1cccc(-c2ncn(CC(F)F)c2-c2ccc3ncc(C(N)=O)n3c2)n1	74%	97%	–	–	65%	2 µM·h	–	–	–
N#Cc1cnc2ccc(-c3c(-c4ccc(F)cc4)ncn3CCO)nn12	100%	93%	–	–	86%	–	> 15000 nM	138 µg/mL (≈ 396 µM)	–
N#Cc1cnc2ccc(-c3c(-c4ccc(F)cc4)ncn3CC(F)F)nn12	96%	75%	–	–	89%	–	> 15000 nM	–	Insoluble
